In patent US10336822B2, “Early marker of proteinuria in patients treated with an anti-VEGF treatment” (Mayo Foundation for Medical Education and Research, priority 2009, dated 2019):
Values joined by “and” are separate entries in the source; they are usually repeats but may differ in a detail not shown here. Identical values can stand only once.

What was measured:
[1] = Proteinuria in patients on anti-VEGF therapy; type: in vivo, human
Protocol: The following was performed to determine whether podocyturia is present in patients who, while undergoing anti-VEGF therapy, develop proteinuria (Table 1). In addition, urinary podocyte excretion was compared among patients on anti-VEGF therapy with proteinuria ranging from 101 to 9720 mg/d (Table 1).

[2] = tested on: urinary podocytes; assay: Podocyturia assay: urinary cells stained for podocin immunoreactivity; type: in vivo, human; settings: for Cells/HPF (urinary podocytes): 400 × high power field, individual cancer patients on anti-VEGF therapy, Table 1
Protocol: A random urine sample (25-50 mL each) was centrifuged for 8 minutes at 700 g at room temperature. The pellets were rinsed twice with […]. Next, the pellets were resuspended in Dulbecco's modified eagle's medium (DMEM) F-12 medium with 10% fetal bovine serum that was supplemented with antibiotics for the prevention of bacterial contamination. A one-milliliter aliquot was plated on a collagen-coated tissue culture slide, which was followed by overnight incubation at 37° C. in 5% CO2. The next day, the media were removed, followed by two phosphate-buffered saline solution washes. The slide was fixed with 1 mL of ice cold methanol for 10 minutes at −20° C. The slide was incubated with antibodies to podocin (dilution, 1:200). After being washed with phosphate-buffered saline solution, a secondary fluorescein isothiocyanate-labeled antibody was added at a dilution of 1:40 for 30 minutes. The sediment was counterstained with Hoechst nuclear stain to facilitate differentiation of whole cells from cell fragments. Coverslips were mounted with Vectashield (Vector Labs, Burlington, Calif.), and the slides were viewed with a fluorescence microscope (Leica, Germany). Nucleated, positive-staining cells were considered to be podocytes. A renal pathologist, who was blinded to the clinical diagnosis and laboratory findings, evaluated each sample to determine the number of cells that were present and the percentage of cells that were stained for podocin.

[3] = Renal function (creatinine, GFR) in patients on anti-VEGF therapy; settings: for GFR: individual cancer patients on anti-VEGF therapy, Table 1
[4] = tested on: renal cell carcinoma, clear cell type; assay: Clinical course of a renal cell carcinoma patient on sunitinib therapy; type: in vivo, human; settings: person, four months into therapy
Text: They subsequently underwent a right radical nephrectomy and retroperitoneal lymphadenectomy.

Compound	Proteinuria ([1]; individual cancer patients on anti-VEGF therapy, Table 1)	Cells/HPF (urinary podocytes) [2]	GFR [3]	Proteinuria (dipstick) ([1]; human, in vivo)	Additional side effects [4]	Proteinuria ([1]; human, in vivo)	predicted 24 hour protein ([1]; human, in vivo)	protein in 24 hours ([1]; human, in vivo)	presence of urinary podocytes ([2]; person, after seven months of therapy, FIG. 1)	kidney function, as per creatinine measurements ([3]; after the regimen was changed and the dose was decreased)	creatinine ([3]; person, after seven months of therapy)	peak creatinine ([3]; person, four months into therapy)
CNC(=O)c1cc(Oc2ccc(NC(=O)Nc3ccc(Cl)c(C(F)(F)F)c3)cc2)ccn1 [S/nib, sorafenib]	9720 mg/day and 101 mg/day	>9 Cells/HPF and 1 Cells/HPF	70 and 39	–	–	–	–	–	–	–	–	–
bevacizumab	–	–	–	1 + dipstick	–	–	–	–	–	–	–	–
CCN(CC)CCNC(=O)c1c(C)[nH]c(/C=C2\C(=O)Nc3ccc(F)cc32)c1C [Sunitinib]	–	>3 Cells/HPF	43	–	hypertension, hand and foot syndrome, and drug-induced hypothyroidism	2112 mg/day	931 mg	467 mg	presence of urinary podocytes was confirmed	improved	1.3	1.5
